17 compounds from ChEMBL document CHEMBL1955728, “3,5-Disubstituted indole derivatives as selective human neuronal nitric oxide synthase (nNOS) inhibitors” (Bioorg Med Chem Lett, 2012) can be followed below.

Assay [1] concerns the target Nitric oxide synthase, inducible (Homo sapiens, UniProt P35228). The assay is described as follows: Inhibition of human iNOS expressed in baculovirus infected insect Sf9 cells assessed as conversion of [3H]-L-arginine to [3H]-L-citrulline.
The target of assay [2] is T1, Nitric oxide synthase 3 (Homo sapiens, UniProt P29474).
T1 sequence (P29474 whole entry): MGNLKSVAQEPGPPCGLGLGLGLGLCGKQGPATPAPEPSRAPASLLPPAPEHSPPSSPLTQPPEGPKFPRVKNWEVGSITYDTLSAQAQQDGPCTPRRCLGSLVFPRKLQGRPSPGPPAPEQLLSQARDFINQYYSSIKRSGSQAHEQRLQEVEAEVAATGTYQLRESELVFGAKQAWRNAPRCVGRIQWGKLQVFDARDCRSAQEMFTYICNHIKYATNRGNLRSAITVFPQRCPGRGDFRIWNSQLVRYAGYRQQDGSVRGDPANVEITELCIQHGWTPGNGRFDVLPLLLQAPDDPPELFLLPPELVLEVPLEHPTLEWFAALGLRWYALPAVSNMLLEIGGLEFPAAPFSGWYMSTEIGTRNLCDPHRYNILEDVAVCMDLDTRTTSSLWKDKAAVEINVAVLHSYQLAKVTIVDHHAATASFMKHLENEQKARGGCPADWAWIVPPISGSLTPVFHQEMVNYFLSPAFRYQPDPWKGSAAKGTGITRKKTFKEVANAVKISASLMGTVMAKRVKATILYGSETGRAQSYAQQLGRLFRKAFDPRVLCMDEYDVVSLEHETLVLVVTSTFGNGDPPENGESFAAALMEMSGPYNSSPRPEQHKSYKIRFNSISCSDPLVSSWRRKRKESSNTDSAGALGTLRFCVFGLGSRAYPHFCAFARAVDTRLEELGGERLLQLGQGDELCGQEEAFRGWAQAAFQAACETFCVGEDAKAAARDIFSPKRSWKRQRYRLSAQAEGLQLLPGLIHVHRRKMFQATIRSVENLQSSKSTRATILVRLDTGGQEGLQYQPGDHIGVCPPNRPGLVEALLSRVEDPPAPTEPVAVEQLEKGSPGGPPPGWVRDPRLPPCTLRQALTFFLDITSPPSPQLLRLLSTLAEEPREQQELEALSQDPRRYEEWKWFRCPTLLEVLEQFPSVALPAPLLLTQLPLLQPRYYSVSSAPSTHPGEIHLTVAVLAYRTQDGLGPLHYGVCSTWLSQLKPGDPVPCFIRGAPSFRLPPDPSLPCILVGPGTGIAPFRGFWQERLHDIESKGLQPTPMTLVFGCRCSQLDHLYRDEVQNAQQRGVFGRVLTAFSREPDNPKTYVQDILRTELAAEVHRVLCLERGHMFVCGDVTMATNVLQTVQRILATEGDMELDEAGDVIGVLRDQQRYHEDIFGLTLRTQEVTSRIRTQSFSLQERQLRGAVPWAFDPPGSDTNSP
The assay is described as follows: Inhibition of human eNOS expressed in baculovirus infected insect Sf9 cells assessed as conversion of [3H]-L-arginine to [3H]-L-citrulline.

The species named for assay [3] is Homo sapiens. Briefly: Selectivity ratio of IC50 for human eNOS to IC50 for human nNOS.
Assay [4] concerns the target Nitric oxide synthase 1 (Homo sapiens, UniProt P29475). Briefly: Inhibition of human nNOS expressed in baculovirus infected insect Sf9 cells assessed as conversion of [3H]-L-arginine to [3H]-L-citrulline.
The target in assay [5] is Nitric oxide sythases; iNOS & nNOS (Homo sapiens) (UniProt P29475+P35228). The assay is described as follows: Selectivity ratio of IC50 for human iNOS to IC50 for human nNOS.
Sequence of Nitric oxide sythases; iNOS & nNOS (Homo sapiens) (P29475 whole entry, looked up): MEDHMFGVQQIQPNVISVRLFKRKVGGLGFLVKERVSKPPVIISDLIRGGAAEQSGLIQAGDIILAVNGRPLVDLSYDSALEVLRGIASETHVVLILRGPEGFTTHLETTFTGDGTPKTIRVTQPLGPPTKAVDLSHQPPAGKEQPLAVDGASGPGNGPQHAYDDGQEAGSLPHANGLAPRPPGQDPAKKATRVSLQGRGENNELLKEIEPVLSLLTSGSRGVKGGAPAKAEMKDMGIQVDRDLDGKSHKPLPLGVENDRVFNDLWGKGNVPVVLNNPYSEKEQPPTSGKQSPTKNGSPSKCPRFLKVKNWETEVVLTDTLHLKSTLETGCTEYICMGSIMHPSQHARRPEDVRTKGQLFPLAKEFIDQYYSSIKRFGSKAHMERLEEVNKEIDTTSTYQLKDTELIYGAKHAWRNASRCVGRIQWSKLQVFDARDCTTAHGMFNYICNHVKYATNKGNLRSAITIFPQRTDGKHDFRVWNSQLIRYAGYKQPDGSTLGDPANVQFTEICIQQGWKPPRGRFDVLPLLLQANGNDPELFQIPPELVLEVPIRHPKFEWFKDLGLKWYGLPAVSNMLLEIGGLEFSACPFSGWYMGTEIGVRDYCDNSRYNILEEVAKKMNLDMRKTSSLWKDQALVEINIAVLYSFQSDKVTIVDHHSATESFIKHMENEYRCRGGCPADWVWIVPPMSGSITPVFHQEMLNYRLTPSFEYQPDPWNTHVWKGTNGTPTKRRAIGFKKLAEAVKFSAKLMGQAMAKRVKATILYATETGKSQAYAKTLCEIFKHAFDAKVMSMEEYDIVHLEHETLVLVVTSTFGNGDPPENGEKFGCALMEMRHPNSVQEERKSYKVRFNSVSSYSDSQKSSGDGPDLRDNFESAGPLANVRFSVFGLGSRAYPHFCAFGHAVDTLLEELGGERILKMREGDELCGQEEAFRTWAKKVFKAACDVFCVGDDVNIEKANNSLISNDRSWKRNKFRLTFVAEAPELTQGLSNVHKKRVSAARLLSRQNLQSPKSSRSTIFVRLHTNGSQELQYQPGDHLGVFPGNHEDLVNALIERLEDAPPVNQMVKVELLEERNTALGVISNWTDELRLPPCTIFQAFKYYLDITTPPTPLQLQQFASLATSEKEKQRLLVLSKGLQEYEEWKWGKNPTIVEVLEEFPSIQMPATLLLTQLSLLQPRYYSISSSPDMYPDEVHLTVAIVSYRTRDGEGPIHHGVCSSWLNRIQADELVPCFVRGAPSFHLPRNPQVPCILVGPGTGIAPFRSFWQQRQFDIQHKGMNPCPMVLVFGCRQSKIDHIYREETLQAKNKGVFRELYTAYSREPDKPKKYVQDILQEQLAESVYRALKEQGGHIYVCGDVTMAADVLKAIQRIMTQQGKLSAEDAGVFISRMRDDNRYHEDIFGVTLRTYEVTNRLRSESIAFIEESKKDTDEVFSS
Sequence of Nitric oxide sythases; iNOS & nNOS (Homo sapiens) (P35228 whole entry, looked up): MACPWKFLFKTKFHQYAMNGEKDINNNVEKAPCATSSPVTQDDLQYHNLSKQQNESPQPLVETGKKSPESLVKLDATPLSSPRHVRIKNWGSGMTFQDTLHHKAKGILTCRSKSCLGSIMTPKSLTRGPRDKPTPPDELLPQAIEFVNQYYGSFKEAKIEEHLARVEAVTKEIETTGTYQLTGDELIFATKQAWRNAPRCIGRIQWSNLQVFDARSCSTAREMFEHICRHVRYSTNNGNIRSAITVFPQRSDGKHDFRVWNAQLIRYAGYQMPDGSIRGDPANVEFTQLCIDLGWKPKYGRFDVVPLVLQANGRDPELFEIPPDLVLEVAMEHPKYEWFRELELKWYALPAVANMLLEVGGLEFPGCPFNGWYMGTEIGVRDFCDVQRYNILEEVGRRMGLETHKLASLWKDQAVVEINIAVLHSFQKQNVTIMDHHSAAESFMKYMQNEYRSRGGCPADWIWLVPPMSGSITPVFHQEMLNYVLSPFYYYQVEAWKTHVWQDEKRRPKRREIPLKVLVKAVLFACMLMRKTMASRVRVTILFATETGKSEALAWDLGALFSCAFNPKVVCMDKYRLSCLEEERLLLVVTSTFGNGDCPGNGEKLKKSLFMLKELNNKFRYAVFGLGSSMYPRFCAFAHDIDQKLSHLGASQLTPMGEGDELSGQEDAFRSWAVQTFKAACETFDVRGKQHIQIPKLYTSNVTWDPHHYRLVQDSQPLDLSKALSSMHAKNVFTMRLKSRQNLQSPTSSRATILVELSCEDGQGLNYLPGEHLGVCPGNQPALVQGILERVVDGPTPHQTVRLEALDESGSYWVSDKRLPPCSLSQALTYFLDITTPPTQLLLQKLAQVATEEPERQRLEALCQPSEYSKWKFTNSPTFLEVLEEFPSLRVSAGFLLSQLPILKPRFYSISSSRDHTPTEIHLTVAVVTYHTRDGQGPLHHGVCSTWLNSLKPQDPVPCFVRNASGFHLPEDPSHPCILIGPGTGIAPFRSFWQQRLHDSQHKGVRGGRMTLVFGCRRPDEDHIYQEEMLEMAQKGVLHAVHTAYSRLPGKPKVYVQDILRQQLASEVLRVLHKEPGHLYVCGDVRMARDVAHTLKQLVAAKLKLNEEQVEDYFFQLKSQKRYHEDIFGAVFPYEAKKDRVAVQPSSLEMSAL
The test system of assay [6] is Rattus norvegicus. Briefly: Antihyperalgesic activity in rat L5/L6 SNL model of neuropathic pain assessed as reversal of thermal hyperalgesia at 10 mg/kg, ip measured after 30 to 120 mins. It counts as functional, organism-based. Further details: dose 10 mg/kg.
Assay [7] addresses Nitric oxide synthase 1 (Rattus norvegicus, UniProt P29476). The assay is described as follows: Inhibition of rat nNOS.
Assay [8] addresses Cytochrome P450 2C19 (Homo sapiens, UniProt P33261). Briefly: Inhibition of human CYP2C19. It counts as ADME.
The target in assay [9] is Cytochrome P450 3A4 (Homo sapiens, UniProt P08684). Briefly: Inhibition of human CYP3A4. In kind it is ADME.
Sequence of Cytochrome P450 3A4 (P08684 whole entry): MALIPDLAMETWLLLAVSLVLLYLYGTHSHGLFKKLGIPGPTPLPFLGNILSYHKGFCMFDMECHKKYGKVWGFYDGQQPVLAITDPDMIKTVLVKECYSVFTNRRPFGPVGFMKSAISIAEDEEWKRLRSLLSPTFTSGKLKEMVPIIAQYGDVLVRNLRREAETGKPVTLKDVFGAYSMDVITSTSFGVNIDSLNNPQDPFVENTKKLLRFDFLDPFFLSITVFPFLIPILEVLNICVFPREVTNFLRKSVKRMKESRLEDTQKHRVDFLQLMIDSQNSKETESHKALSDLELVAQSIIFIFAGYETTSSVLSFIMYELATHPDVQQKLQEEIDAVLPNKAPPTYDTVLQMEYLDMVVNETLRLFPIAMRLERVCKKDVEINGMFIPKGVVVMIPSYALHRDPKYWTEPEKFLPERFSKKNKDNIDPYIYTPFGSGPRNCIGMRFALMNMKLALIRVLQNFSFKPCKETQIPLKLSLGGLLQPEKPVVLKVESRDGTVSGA
Assay [10] has as its target T2, Cytochrome P450 1A2 (Homo sapiens, UniProt P05177).
T2 sequence (P05177 whole entry): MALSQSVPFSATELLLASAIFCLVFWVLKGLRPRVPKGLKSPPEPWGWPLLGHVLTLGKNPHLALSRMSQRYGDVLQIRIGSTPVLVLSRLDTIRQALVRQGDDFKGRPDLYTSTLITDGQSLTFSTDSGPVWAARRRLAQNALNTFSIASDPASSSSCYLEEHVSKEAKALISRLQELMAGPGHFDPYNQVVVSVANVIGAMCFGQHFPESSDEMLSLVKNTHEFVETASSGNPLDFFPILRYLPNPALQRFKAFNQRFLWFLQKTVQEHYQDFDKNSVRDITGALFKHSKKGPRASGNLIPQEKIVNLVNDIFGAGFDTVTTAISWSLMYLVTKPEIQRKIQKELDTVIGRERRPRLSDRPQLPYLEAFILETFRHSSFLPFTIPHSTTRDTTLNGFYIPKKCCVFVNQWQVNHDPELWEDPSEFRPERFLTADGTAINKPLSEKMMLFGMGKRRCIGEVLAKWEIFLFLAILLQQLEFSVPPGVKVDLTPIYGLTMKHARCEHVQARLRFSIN
The assay is described as follows: Inhibition of human CYP1A2. It counts as ADME.

Assay [11] has as its target Cytochrome P450 2C9 (Homo sapiens, UniProt P11712). Briefly: Inhibition of human CYP2C9. In kind it is ADME.
Assay [12] can be described thus: Vasoconstrictive activity in human arteries assessed as inhibition of acetylcholine-induced vasorelaxation at 10 uM in presence of thromboxane A2 mimetic agent U46619. In kind it is tissue-based, Artery.
For assay [13], the system named is Rattus norvegicus. Briefly: Antihyperalgesic activity in rat L5/L6 SNL model of neuropathic pain assessed as reversal of thermal hyperalgesia at 10 mg/kg, ip measured after 30 mins. It counts as functional. The following applies: route intraperitoneal.
Assay [14] has as its target Cytochrome P450 2D6 (Homo sapiens, UniProt P10635). Briefly: Inhibition of human CYP2D6. It counts as ADME.

The source made the active and inactive calls. The rule behind the calls is not given here.

Sequence of Nitric oxide synthase 1 (Homo sapiens, UniProt P29475) (P29475 whole entry): as the sequence (P29475 whole entry, looked up) above
Sequence of Nitric oxide synthase, inducible (P35228 whole entry): as the sequence (P35228 whole entry, looked up) above
Sequence of Nitric oxide synthase 1 (Rattus norvegicus, UniProt P29476) (P29476 whole entry): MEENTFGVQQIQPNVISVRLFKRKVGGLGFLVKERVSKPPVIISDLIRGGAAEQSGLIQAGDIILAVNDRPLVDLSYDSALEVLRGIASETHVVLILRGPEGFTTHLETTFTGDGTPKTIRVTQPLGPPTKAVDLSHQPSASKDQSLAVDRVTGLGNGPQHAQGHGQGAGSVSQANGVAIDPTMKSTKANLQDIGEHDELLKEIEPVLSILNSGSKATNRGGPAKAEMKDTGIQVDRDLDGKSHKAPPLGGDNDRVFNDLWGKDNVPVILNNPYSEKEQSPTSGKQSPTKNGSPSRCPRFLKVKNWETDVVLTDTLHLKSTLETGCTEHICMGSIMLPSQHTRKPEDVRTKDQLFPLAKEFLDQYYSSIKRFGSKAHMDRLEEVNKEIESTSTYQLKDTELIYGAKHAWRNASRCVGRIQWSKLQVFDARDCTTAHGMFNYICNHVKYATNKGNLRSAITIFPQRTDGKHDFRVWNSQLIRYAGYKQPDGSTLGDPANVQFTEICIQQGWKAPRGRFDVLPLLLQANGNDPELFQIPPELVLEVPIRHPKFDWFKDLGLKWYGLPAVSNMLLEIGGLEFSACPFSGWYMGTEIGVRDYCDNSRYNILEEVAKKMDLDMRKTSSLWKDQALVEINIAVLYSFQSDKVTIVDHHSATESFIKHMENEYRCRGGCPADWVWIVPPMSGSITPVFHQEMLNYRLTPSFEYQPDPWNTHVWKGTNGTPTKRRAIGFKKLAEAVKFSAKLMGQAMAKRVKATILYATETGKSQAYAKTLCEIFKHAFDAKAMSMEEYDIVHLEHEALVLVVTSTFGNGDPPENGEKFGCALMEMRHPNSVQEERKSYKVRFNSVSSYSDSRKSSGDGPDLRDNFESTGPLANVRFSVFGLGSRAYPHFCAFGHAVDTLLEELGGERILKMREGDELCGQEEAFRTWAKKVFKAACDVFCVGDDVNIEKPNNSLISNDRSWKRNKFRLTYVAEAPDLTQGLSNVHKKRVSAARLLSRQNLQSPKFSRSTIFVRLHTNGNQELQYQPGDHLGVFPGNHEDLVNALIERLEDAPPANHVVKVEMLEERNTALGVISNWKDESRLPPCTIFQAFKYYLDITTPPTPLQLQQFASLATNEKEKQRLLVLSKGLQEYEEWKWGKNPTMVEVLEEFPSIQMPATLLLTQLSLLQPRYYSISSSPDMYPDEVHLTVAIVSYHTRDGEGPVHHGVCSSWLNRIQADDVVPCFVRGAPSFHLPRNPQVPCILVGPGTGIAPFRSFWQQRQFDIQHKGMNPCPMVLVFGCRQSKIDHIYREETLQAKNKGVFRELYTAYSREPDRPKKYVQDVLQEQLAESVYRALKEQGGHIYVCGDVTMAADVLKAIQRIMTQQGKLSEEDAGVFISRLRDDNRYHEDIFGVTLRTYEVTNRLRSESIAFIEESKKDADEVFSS
Sequence of Cytochrome P450 2C9 (P11712 whole entry): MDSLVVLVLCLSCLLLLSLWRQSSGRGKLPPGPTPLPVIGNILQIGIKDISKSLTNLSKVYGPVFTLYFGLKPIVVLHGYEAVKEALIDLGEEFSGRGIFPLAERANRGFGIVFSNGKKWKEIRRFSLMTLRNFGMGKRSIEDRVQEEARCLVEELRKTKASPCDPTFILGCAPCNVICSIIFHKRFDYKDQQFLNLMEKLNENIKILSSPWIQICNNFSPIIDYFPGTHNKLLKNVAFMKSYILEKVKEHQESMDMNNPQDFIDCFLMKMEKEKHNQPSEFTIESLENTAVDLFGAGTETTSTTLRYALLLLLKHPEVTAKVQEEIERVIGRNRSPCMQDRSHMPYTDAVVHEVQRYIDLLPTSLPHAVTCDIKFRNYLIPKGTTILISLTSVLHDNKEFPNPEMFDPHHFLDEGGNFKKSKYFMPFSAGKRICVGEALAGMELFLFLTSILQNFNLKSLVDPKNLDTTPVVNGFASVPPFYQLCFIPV

The term IC50 denotes the concentration at which inhibition is half-maximal. With `CN1CCC(c2c[nH]c3ccc(NC(=N)c4ccco4)cc23)CC1`, in assay [1], the IC50 was found to be 108 µM.
Consider `Cc1ccc(C(=N)Nc2ccc3[nH]cc(C4=CCN(C)CC4)c3c2)s1`, for which the IC50 in assay [2] stood at 65.3 µM; in [4], 10.4 µM. For the same compound, the Ratio IC50 in assay [3] was determined as 6.
Take `CN1CCC(c2c[nH]c3ccc(/N=C(\N)c4cccs4)cc23)CC1`: the Ratio IC50 in [5] stood at 57.
As to `CN1CCC(c2c[nH]c3ccc(NC(=N)c4ccccc4)cc23)CC1`, the IC50 in assay [2] came to 249 µM; in [4], 18 µM. The Ratio IC50 in assay [3] worked out at 14.
For the compound `CCS/C(N)=N/c1ccc2[nH]cc(C3=CCN(C)CC3)c2c1`, the Ratio IC50 in [3] came out at 22.
Regarding `CN1CC=C(c2c[nH]c3ccc(/N=C(\N)c4ccco4)cc23)CC1`, the values for the Ratio IC50 in [3] and in assay [5] were 66 and 106, respectively. For the same compound, the outcome in assay [6] was Active.
As for `CN1CC=C(c2c[nH]c3ccc(C/N=C(\N)c4cccs4)cc23)CC1`, the Ratio IC50 in [3] came to 50; in assay [5], 66.
Consider `CN1CC=C(c2c[nH]c3ccc(/N=C(\N)c4cccs4)cc23)CC1`, for which the Ratio IC50 came out at 118 in assay [3] and 105 in assay [5].
Take `CS/C(N)=N/c1ccc2[nH]cc(C3=CCN(C)CC3)c2c1`: the Ratio IC50 stood at 16 in assay [3] and 8 in [5].
In the case of `CN1CCC(c2c[nH]c3ccc(NC(=N)c4cccs4)cc23)CC1`, the IC50 in [2] turned out to be 24.2 µM; in assay [4] it was 1.02 µM.
With `CN1CC=C(c2c[nH]c3ccc(NC(=N)c4ccco4)cc23)CC1.Cl.Cl`, the IC50 was 2.6 µM in assay [7]; more than 100 µM in assay [8]; more than 100 µM in assay [9]; 9.52 µM in assay [10]; more than 100 µM in [11]; 36.1 µM in [2]. The IC50 entry in assay [12] was “Not Active”; in [4] it was 0.55 µM; in assay [14], 20.5 µM. Moreover, in assay [13], the Activity came to 94%.
For `CN1CC=C(c2c[nH]c3ccc(NC(=N)c4cccs4)cc23)CC1`, the results for the IC50 in assay [7], in [2] and in assay [4] were 2.3 µM, 22.4 µM and 0.19 µM, respectively.
Turning to `CSC(=N)Nc1ccc2[nH]cc(C3=CCN(C)CC3)c2c1`, in [1], the IC50 came out at 17.1 µM.
Take `CN1CC=C(c2c[nH]c3ccc(NC(=S)NC(=O)c4ccccc4)cc23)CC1`: the Ratio IC50 in [3] was 3.
In the case of `CN1CC=C(c2c[nH]c3ccc(CNC(=N)c4cccs4)cc23)CC1`, the IC50 in assay [2] came out at 64.7 µM; in assay [4] it was 1.29 µM.
For `CN1CCC(c2c[nH]c3ccc(/N=C(\N)c4ccco4)cc23)CC1`, the results for the Ratio IC50 in [3] and in assay [5] were 43 and 48, respectively.
Regarding `CN1CC=C(c2c[nH]c3cc(NC(=N)c4cccs4)ccc23)CC1`, the Ratio IC50 came to 33 in assay [3] and 15 in [5].
